Reference: patent US11839698B2, “Drug composition and coating” (priority 2014, dated 2023)
Counter-ions that a name gives are not always drawn.

Legend:
[1] = Test Method D: stability to ethylene oxide sterilization (paclitaxel recovery by UPLC); assay type: physicochemical; conditions: additive formulated with paclitaxel as solid coating
Experimental: A sample of a composition of the invention or a coated device of the invention was placed in a breathable polyethylene pouch (e.g. a Tyvek pouch) and subjected to at least 12 hours preconditioning at 43° C. and 65% relative humidity followed by 12 hours exposure to 600 mg/L ethylene oxide at 52° F. and 25% relative humidity. The chamber was then aerated at 32° F. for at least 12 hours until ethylene oxide concentration was less than 0.25 ppm.
After sterilization, the paclitaxel content on the device or the paclitaxel content of the composition was assessed (through device extraction for coated medical devices i.e. immersion of the whole device in an extraction solvent) using UPLC quantification as described in the evaluation methods section. For each device or composition, the percentage drug recovery after sterilization was calculated by normalizing the extracted paclitaxel amount by the theoretical paclitaxel amount loaded on the device, or present in the composition pre-sterilization.
Approximately 30 mg of excipient was weighed into a 7 mL glass vial and 6 mL of 75/25 v/v acetone/water was added. A small stirrer bar was added to each vial and all samples were stirred overnight at room temperature to ensure full dissolution. […] Percent paclitaxel recovery was calculated by normalizing to either theoretical initial loading or pre-sterilized samples.

[2] = in acetone, ethanol and aqueous mixtures thereof
Excerpt: As discussed in further detail below, coatings of the invention can be prepared by pipetting a solution containing therapeutic agent and excipient onto the device to be coated. […] Thus, in one embodiment the organic additive is not thiamine-HCl.

[3] = Early experiments on stability of organic additive in solution; assay type: physicochemical
Excerpt: Thus, vanillin is not suitable as an organic additive for the present invention.

| Compound | effect of additive on paclitaxel under ethylene oxide sterilization [1] | other results |
| --- | --- | --- |
| NC(=O)c1cccnc1 [niacinamide] | nearly complete paclitaxel degradation | – |
| Cc1ncc(C[n+]2csc(CCO)c2C)c(N)n1 [thiamine-HCl] | – | solubility of additive [2]: poor solubility |
| O=C([O-])c1ccccc1O.[Na+] [sodium salicylate] | cause degradation of the paclitaxel | – |
| COc1cc(C=O)ccc1O [vanillin] | – | stability of additive in solution [3]: easily degraded in solution |
